Source: patent US4772684A, “Peptides affecting blood pressure regulation” (Triton Biosciences, Inc., priority 1988, dated 1988)
One block for each molecule: values may come before it. Non-standard residues stand in square brackets, D forms with d. Residues, ends and D or L forms follow the SMILES beside them.

What was measured:
angiotensin II receptors = assay: Inhibition of radiolabeled angiotensin II binding to isolated hepatic receptor; parameters: species or system rabbit; settings: for ID50 (concentration of peptide that inhibited binding of radiolabeled angiotensin II by 50%): 0.25 nM [125I]angiotensin II, partially purified solubilized rabbit liver receptor, 60 minutes at 20° C.
Method: Inhibition of angiotensin II binding to angiotensin II receptors by peptides of this invention was measured through the use of radioactive angiotensin II. Rabbit livers were homogenized and centrifuged in order to isolate particles sedimenting between 1,000 and 100,000×g. A portion of the particles which binds angiotensin II was solubilized with 1% digitonin, followed by ammonium sulfate fractionation between 49 and 65% saturation, followed by DEAE-cellulose chromatography at pH 7.5 using a linear gradient between 0.0 and 0.3 M KCl. The partially purified, solubilized receptor preparation bound 17 pmoles of angiotensin II per mg of protein when analyzed by Scatchard analysis, indicating a purity of approximately 0.1%.
The assay for binding of angiotensin II to the receptor was as follows: The complete system (150 μl) contained 30 mM Tris-HCl, pH 7.5, 2.5 mM K2 EDTA, 0.2 mM PCMS, 0.25 nM [^125 I]angiotensin II (ca. 100,000 cpm), 100 μg BSA, 0.25% (v/v) Brij 99 (a polyoxyethylene ether of a fatty alcohol) and 30 μg of partially purified receptor. The reaction was initiated by addition of the receptor and samples were incubated for 60 minutes at 20° C. The reaction was terminated with 1 ml of cold 0.5% charcoal/0.05% dextran in 100 mM Tris-HCl, pH 7.5. Tubes were vortexed and then allowed to stand 10 minutes at 4° C., after which they were centrifuged and their supernatants, containing protein-bound angiotensin II, were counted.
The complete system under these conditions regularly yields about 10,000 cpm of bound radioactivity. […] A sample including 20 nM cold angiotensin II was also run. Residual binding of radioactivity in this control was 35-45%. Certain peptides of this invention were dissolved in water, except for Peptide 5, which was dissolved in 3% DMSO, 0.04 M acetic acid, and 0.05 M HCl in water.

[1] = tested on: AII-stimulated contraction of isolated rabbit aorta strips; assay: Peptide effect on AII-stimulated contraction of arterial muscle strips; assay type: cell-based; settings: AII 10^-9 M
Method: (§1) The peptides of this invention were tested in vitro, using an assay of isolated rabbit aorta strips mounted in a muscle bath.
(§2) Strips were mounted vertically on a glass holder in a tissue bath containing 50 ml of PSS. The upper end of each strip was connected to a force transducer. The bathing medium was maintained at 37° C. and aerated with a mixture of 95% O2 -5% CO2. The pH of the PSS was 7.2 and the composition, in mmoles/l, was as follows: NaCl 130, KCl 14.7, KH2 PO4 1.18, MgSO4 7H2 O 1.17, CaCl2 -2H2 O 1.6, […] 14.9, dextrose 5.5, and CaNa2 EDTA 0.03. In all experiments, the passive force on each strip was adjusted to 2,000 mg.
In another set of experiments, the ability of peptides to increase or decrease contraction caused by angiotensin II was measured.
The muscle strips were bathed in PSS containing AII, 10^-9 M. Strips were allowed to contract until a steady-state contraction was reached (^~8 minutes), then peptide was added in a step-wise. cumulative manner. The change in muscle strip contraction was measured after each addition of peptide, and more peptide was not added until contraction had stabilized from the previous peptide addition (10-15 minutes). Each peptide was tested in strips from 2 or 4 rabbits.
A positive value indicates increased contraction, while a negative value represents a decreased contractile response.

rat hypertension model = assay: Blood pressure in anesthetized rats (rat hypertension model); assay type: in vivo
Method: Peptide 2 of this invention was tested in vivo, using a rat hypertension model. Adult male rats (n=4) were anesthetized with sodium pentobarbital (50 mg/kg) and the left jugular vein was cannulated for infusion of drugs. Bolus injections of angiotensin II were delivered via the same venous catheter. The right carotid artery was cannulated for measurement of blood pressure. Injection of angiotensin II (1 ng) caused an increase in mean arterial blood pressure (^~ 50 mm Hg).

[2] = tested on: isolated rabbit aorta strips; assay: Contractile response of isolated arterial smooth muscle strips in muscle bath; assay type: cell-based; settings: cumulative addition
Method: as §1
as §2, with “The left anterior descending coronary artery was excised from the heart and cut helically into a strip under a dissecting microscope. Strips” for “Strips”
In one set of experiments, peptides were tested for ability to stimulate contractile response. Peptide was added to the bath in a step-wise, cumulative manner. Three peptides were tested: angiotensin II., Peptide 2 and Peptide 5. Muscle strips from between 2 and 6 rabbits were used to test each peptide.

dog femoral vein = assay: Angiotensin II-caused relaxation of isolated dog venous strips; assay type: cell-based; settings: angiotensin II 3×10^-7 M
Method: Peptide 2 of this invention was tested in vitro, using an assay of isolated dog venous strips mounted in a muscle bath. Isolated segments of the dog femoral vein (n=2) were mounted in organ baths for measurement of isometric force generation. The conditions were as described in Example 3. The vascular segments were made to contract in response to prostaglandin F2a (8.5×10^-7 M). After the contraction reached a plateau, angiotensin II (3×10^-7 M) was added to the organ bath and the venous segments relaxed to approximately 50% of the response to prostaglandin F2a. This relaxation response to angiotensin II was inhibited 100% by saralasin ([…]) and by Peptide 2 (10^-5 M).

[3] = tested on: isolated rabbit aorta strips; assay: Saralasin block of AII contraction and peptide-stimulated contraction in muscle strips; assay type: cell-based; settings: saralasin 10^-8 M; AII 10^-9 M

ID50 (concentration of peptide that inhibited binding of radiolabeled angiotensin II by 50%) (angiotensin II receptors): 40 to 160 nM
Molecule: CC[C@H](C)[C@H](NC(=O)[C@H](Cc1ccc(O)cc1)NC(=O)[C@@H](NC(=O)CNC(=O)[C@@H](N)CCCCN)C(C)C)C(=O)N[C@@H](Cc1c[nH]cn1)C(=O)N[C@@H](C)C(=O)N[C@@H](CC(C)C)C(N)=O [Peptide 7, NH2LYSGLYVALTYRILEHISALALEUCONH2] (H-KGVYIHAL-NH2)

ID50 (concentration of peptide that inhibited binding of radiolabeled angiotensin II by 50%) (angiotensin II receptors): > 10,000 nM
Molecule: CC[C@@H](C)[C@@H](NC(=O)[C@@H](Cc1ccc(O)cc1)NC(=O)[C@H](NC(=O)CNC(=O)[C@H](N)CCCCN)C(C)C)C(=O)N[C@H](Cc1c[nH]cn1)C(=O)N[C@H](C)C(=O)N[C@H](CC(C)C)C(=O)O [Peptide 11, NH2LYSGLYVALTYRILEHISALALEUCOOH] (H-[dK]G[dV][dY][dI][dH][dA][dL]-OH)
% Change from AII Response ([1]; peptide 3 × 10^-5 M): -7% | % Change from AII Response ([1]; peptide 3 × 10^-6 M): -3% | % Change from AII Response ([1]; peptide 10^-4 M): -33% | % Change from AII Response ([1]; peptide 10^-5 M): -5% | % Change from AII Response ([1]; peptide 10^-6 M): 0%

ID50 (concentration of peptide that inhibited binding of radiolabeled angiotensin II by 50%) (angiotensin II receptors): 6 nM
Molecule: CSCC[C@H](NC(=O)[C@H](Cc1ccc(O)cc1)NC(=O)[C@@H](NC(=O)CNC(=O)[C@@H](N)CCCCN)C(C)C)C(=O)N[C@@H](Cc1c[nH]cn1)C(=O)N[C@@H](CO)C(=O)N[C@@H](CC(C)C)C(=O)O [Peptide 13, NH2LYSGLYVALTYRMETHISSERLEUCOOH] (H-KGVYMHSL-OH)

ID50 (concentration of peptide that inhibited binding of radiolabeled angiotensin II by 50%) (angiotensin II receptors): 4,000 nM
Molecule: CC(C)[C@H](NC(=O)[C@H](C)NC(=O)[C@H](Cc1ccc(O)cc1)NC(=O)[C@@H](NC(=O)[C@H](CC(=O)O)NC(=O)[C@@H](NC(=O)CNC(=O)[C@@H](N)CCCCN)C(C)C)C(C)C)C(=O)O [Peptide 1, NH2 - LYS-GLY-VAL-ASP-VAL-TYR-ALA-VAL-COOH] (H-KGVDVYAV-OH)

ID50 (concentration of peptide that inhibited binding of radiolabeled angiotensin II by 50%) (angiotensin II receptors): 5,000 nM
Molecule: CC(C)[C@H](NC(=O)[C@@H]1CCCN1C(=O)[C@H](Cc1c[nH]cn1)NC(=O)[C@@H](NC(=O)[C@H](CC(=O)O)NC(=O)[C@@H](NC(=O)CNC(=O)[C@@H](N)CCC(N)=O)C(C)C)C(C)C)C(=O)O [Peptide 12, NH2GLNGLYVALASPVALHISPROVALCOOH] (H-QGVDVHPV-OH)

ID50 (concentration of peptide that inhibited binding of radiolabeled angiotensin II by 50%) (angiotensin II receptors): 5,000 nM
Molecule: CSCC[C@H](NC(=O)[C@H](CC(=O)O)NC(=O)[C@@H](NC(=O)CNC(=O)[C@@H](N)CCCCN)C(C)C)C(=O)N[C@@H](Cc1c[nH]cn1)C(=O)N[C@@H](C)C(=O)N[C@@H](CC(C)C)C(=O)O [Peptide 3, NH2LYSGLYVALASPMETHISALALEUCOOH] (H-KGVDMHAL-OH)

ID50 (concentration of peptide that inhibited binding of radiolabeled angiotensin II by 50%) (angiotensin II receptors): 12 to 15 nM | Residual binding of radioactivity (angiotensin II receptors; 20 nM cold angiotensin II): 35-45%
Molecule: Angiotensin II (DRVYIHPF; Angiotensin-2; UniProt P01019 25-32, looked up) [an octapeptide formed from angiotensin I by angiotensin converting enzyme; causes blood vessel constriction, reference compound]
Increase in mean arterial blood pressure (rat hypertension model; bolus injection 1 ng, jugular vein, anesthetized rats): ~ 50 mm Hg | Average Baseline Response ([2]; 3 × 10^-8 M): 2,613 mg | Average Baseline Response ([2]; 3 × 10^-9 M): 2,332 mg | Average Baseline Response ([2]; 3 × 10^-10 M): 991 mg | Average Baseline Response ([2]; 3 × 10^-11 M): 0 mg | Average Baseline Response ([2]; 10^-8 M): 2,562 mg | Average Baseline Response ([2]; 10^-9 M): 1,726 mg | Average Baseline Response ([2]; 10^-10 M): 0 mg | Average Baseline Response ([2]; 10^-11 M): 0 mg | Relaxation of venous segments, as % of the response to prostaglandin F2a (dog femoral vein; prostaglandin F2a 8.5×10^-7 M): approximately 50%

ID50 (concentration of peptide that inhibited binding of radiolabeled angiotensin II by 50%) (angiotensin II receptors): 2,400-3,100 nM
Molecule: CC[C@H](C)[C@H](NC(=O)[C@H](Cc1ccc(O)cc1)NC(=O)[C@@H](NC(=O)CNC(=O)[C@H](CCCCN)NC(C)=O)C(C)C)C(=O)N[C@@H](Cc1c[nH]cn1)C(=O)N[C@@H](C)C(=O)N[C@@H](CC(C)C)C(N)=O [Peptide 9] (Ac-KGVYIHAL-NH2)

ID50 (concentration of peptide that inhibited binding of radiolabeled angiotensin II by 50%) (angiotensin II receptors): 8 to 14 nM
Molecule: CC[C@H](C)[C@H](NC(=O)[C@H](Cc1ccc(O)cc1)NC(=O)[C@@H](NC(=O)CNC(=O)[C@@H](N)CCCCN)C(C)C)C(=O)N[C@@H](Cc1c[nH]cn1)C(=O)N[C@@H](C)C(=O)N[C@@H](CC(C)C)C(=O)O [Peptide 2, NH2LYSGLYVALTYRILEHISALALEUCOOH] (H-KGVYIHAL-OH)
Effect on baseline blood pressure (rat hypertension model; infusion 0.1 to 0.5 mg/min): did not alter baseline blood pressure | Effect on pressor responses to angiotensin II (rat hypertension model; infusion 0.1 to 0.5 mg/min, angiotensin II 1 ng): did not influence pressor responses to angiotensin II | Average Baseline Response ([2]; 3 × 10^-7 M): 0 mg | Average Baseline Response ([2]; 3 × 10^-8 M): 0 mg | Average Baseline Response ([2]; 3 × 10^-9 M): 0 mg | Average Baseline Response ([2]; 3 × 10^-10 M): 0 mg | Average Baseline Response ([2]; 10^-6 M): 0 mg | Average Baseline Response ([2]; 10^-7 M): 0 mg | Average Baseline Response ([2]; 10^-8 M): 0 mg | Average Baseline Response ([2]; 10^-9 M): 0 mg | % Change from AII Response ([1]; peptide 3 × 10^-5 M): -73% | % Change from AII Response ([1]; peptide 3 × 10^-6 M): 0% | % Change from AII Response ([1]; peptide 10^-4 M): -83% | % Change from AII Response ([1]; peptide 10^-5 M): -18% | % Change from AII Response ([1]; peptide 10^-6 M): 0% | Inhibition of relaxation response to angiotensin II (dog femoral vein; 10^-5 M): 100%

Molecule: CNCC(=O)N[C@@H](CCCN=C(N)N)C(=O)N[C@H](C(=O)N[C@@H](Cc1ccc(O)cc1)C(=O)N[C@H](C(=O)N[C@@H](Cc1cnc[nH]1)C(=O)N1CCC[C@H]1C(=O)N[C@@H](C)C(=O)O)C(C)C)C(C)C [saralasin]
Effect on pressor activity of angiotensin II (rat hypertension model; constant infusion 1 mg/min, angiotensin II 1 ng): inhibited the pressor activity of angiotensin II | Effect on AII contraction [3]: decreased AII contraction | Inhibition of relaxation response to angiotensin II (dog femoral vein; 10^6 M (so in the source)): 100%
